The text below walks through data of ChEMBL document CHEMBL4507263, “Data for DCP probe BAY-474” (2021).

Test [1] can be described thus: GPCRScan assay: inhibition of GABA/PBR. The arrangement: species or system Rattus norvegicus; radioligand conc. used [nm] 0.3 – 2.0, parental cells brain tissue.
Test [2] concerns Tyrosine-protein kinase ABL1 (Homo sapiens), P00519 [Q252H]. As to conditions: Compound concentration 1000.0 nM.
Test [3] addresses Activin receptor type-1-like (Homo sapiens) (UniProt P37023). As to conditions: Compound concentration 1000.0 nM.
Test [4] concerns the target Calcium/calmodulin-dependent protein kinase type 1G (Homo sapiens) (UniProt Q96NX5). As to conditions: Compound concentration 1000.0 nM.
The target in test [5] is Cyclin-dependent kinase 11A (Homo sapiens) (UniProt Q9UQ88). As to conditions: Compound concentration 1000.0 nM.
Sequence of Cyclin-dependent kinase 11A (Homo sapiens) (Q9UQ88 whole entry): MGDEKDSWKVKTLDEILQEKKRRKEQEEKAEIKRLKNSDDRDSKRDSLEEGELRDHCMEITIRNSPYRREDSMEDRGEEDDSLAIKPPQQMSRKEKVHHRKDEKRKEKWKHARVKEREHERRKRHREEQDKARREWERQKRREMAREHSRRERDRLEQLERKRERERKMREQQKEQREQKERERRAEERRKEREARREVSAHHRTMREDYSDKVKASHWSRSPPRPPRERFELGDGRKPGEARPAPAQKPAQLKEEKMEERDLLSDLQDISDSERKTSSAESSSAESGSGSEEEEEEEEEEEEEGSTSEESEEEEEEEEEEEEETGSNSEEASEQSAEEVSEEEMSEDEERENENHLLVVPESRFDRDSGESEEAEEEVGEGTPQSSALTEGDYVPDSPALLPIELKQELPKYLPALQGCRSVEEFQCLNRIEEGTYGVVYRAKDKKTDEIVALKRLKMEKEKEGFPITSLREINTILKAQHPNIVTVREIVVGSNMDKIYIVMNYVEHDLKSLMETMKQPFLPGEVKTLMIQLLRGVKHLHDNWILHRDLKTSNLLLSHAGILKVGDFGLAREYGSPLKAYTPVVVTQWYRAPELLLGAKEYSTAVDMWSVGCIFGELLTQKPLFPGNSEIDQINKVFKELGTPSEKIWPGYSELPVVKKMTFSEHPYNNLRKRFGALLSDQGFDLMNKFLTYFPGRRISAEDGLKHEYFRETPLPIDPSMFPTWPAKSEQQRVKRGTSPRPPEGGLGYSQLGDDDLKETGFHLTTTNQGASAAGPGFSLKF
Test [6] has as its target Macrophage colony-stimulating factor 1 receptor (Homo sapiens) (UniProt P07333). As to conditions: Compound concentration 1000.0 nM.
Test [7] concerns the target Casein kinase I isoform delta (Homo sapiens) (UniProt P48730). As to conditions: Compound concentration 1000.0 nM.
Test [8] deals with Casein kinase I isoform gamma-3 (Homo sapiens) (UniProt Q9Y6M4). As to conditions: Compound concentration 1000.0 nM.
Sequence of Casein kinase I isoform gamma-3 (Homo sapiens) (Q9Y6M4 whole entry, looked up, canonical isoform): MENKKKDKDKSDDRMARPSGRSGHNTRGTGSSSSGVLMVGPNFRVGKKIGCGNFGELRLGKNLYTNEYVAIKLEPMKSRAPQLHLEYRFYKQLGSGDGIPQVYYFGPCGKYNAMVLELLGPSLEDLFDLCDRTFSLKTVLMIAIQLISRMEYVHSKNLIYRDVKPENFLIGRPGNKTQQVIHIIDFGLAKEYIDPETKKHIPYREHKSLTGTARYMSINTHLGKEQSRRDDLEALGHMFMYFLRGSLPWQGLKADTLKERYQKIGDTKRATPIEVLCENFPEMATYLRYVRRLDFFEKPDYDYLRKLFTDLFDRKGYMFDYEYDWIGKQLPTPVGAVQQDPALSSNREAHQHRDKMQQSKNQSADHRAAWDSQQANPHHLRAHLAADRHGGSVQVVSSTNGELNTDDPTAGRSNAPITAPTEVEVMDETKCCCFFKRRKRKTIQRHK
For test [9], the target named is Serine/threonine-protein kinase 17A (Homo sapiens) (UniProt Q9UEE5). As to conditions: Compound concentration 1000.0 nM.
For test [10], the system named is Epidermal growth factor receptor (Homo sapiens), P00533 [G719S]. As to conditions: Compound concentration 1000.0 nM.
In test [11] the target is Ephrin type-A receptor 3 (Homo sapiens) (UniProt P29320). As to conditions: Compound concentration 1000.0 nM.
Sequence of Ephrin type-A receptor 3 (Homo sapiens) (P29320 whole entry): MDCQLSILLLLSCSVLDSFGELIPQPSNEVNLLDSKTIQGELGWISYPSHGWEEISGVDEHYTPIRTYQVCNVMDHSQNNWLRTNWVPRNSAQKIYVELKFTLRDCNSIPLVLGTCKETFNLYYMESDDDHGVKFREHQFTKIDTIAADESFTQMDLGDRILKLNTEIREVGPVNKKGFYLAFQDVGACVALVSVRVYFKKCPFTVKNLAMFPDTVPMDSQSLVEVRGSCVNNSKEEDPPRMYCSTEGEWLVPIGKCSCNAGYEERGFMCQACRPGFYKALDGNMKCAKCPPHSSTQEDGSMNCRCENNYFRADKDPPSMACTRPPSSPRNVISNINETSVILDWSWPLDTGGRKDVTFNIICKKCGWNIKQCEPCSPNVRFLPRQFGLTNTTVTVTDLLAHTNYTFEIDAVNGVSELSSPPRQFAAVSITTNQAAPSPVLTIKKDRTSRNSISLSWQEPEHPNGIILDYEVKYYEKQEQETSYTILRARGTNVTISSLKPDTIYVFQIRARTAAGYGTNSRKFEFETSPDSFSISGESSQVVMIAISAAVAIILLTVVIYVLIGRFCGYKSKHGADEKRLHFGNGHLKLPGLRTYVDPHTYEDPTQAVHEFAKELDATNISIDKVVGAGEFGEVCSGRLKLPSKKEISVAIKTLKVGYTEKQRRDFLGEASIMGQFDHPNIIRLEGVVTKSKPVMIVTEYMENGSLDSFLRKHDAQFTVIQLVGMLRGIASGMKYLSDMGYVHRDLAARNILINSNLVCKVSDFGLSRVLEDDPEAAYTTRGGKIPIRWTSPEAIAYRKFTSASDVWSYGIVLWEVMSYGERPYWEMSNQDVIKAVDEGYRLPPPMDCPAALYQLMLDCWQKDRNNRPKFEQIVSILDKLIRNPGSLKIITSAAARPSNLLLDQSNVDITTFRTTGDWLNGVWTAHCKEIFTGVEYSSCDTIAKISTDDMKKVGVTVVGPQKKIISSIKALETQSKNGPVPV
Test [12] deals with Ephrin type-A receptor 5 (Homo sapiens) (UniProt P54756). As to conditions: Compound concentration 1000.0 nM.
Test [13] addresses Receptor tyrosine-protein kinase erbB-4 (Homo sapiens) (UniProt Q15303). As to conditions: Compound concentration 1000.0 nM.
In test [14] the target is Mitogen-activated protein kinase 1 (Homo sapiens) (UniProt P28482). As to conditions: Compound concentration 1000.0 nM.
Test [15] concerns the target Tyrosine-protein kinase Fer (Homo sapiens) (UniProt P16591). As to conditions: Compound concentration 1000.0 nM.
Test [16] addresses Cyclin-G-associated kinase (Homo sapiens) (UniProt O14976). As to conditions: Compound concentration 1000.0 nM.
Test [17] deals with Homeodomain-interacting protein kinase 2 (Homo sapiens) (UniProt Q9H2X6). As to conditions: Compound concentration 1000.0 nM.
Test [18] has as its target Inhibitor of nuclear factor kappa-B kinase subunit beta (Homo sapiens) (UniProt O14920). As to conditions: Compound concentration 1000.0 nM.
For test [19], the system named is Mast/stem cell growth factor receptor Kit (Homo sapiens), P10721 [A829P]. As to conditions: Compound concentration 1000.0 nM.
Sequence of Mast/stem cell growth factor receptor Kit (Homo sapiens), P10721 [A829P] (P10721 whole entry A829P, the tested form may be a part): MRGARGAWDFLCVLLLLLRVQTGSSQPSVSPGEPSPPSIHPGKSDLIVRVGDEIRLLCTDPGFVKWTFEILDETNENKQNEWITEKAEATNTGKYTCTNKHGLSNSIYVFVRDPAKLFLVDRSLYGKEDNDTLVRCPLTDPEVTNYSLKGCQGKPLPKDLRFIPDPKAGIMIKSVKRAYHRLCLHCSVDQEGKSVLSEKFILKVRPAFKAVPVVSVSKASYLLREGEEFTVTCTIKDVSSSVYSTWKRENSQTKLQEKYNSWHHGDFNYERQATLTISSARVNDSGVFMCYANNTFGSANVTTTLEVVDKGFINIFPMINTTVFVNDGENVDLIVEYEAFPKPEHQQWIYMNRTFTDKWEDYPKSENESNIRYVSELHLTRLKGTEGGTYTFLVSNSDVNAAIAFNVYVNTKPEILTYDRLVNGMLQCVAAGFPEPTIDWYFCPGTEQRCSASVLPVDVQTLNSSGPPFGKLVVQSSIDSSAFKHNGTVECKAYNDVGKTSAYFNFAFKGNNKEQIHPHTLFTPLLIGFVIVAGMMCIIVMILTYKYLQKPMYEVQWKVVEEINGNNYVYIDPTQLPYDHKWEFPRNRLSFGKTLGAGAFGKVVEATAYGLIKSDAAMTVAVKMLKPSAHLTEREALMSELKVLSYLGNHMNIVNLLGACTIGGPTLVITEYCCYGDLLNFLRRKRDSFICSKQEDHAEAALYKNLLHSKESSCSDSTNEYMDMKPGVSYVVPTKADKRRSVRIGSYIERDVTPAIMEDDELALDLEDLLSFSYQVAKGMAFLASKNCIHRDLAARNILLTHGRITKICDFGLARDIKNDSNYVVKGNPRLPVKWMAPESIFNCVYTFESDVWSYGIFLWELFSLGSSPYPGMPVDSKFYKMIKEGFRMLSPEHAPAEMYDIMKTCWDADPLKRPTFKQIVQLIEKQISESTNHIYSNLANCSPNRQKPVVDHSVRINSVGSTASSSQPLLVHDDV
Test [20] has as its target LIM domain kinase 1 (Homo sapiens) (UniProt P53667). As to conditions: Compound concentration 1000.0 nM.
Test [21] concerns the target Serine/threonine-protein kinase 10 (Homo sapiens) (UniProt O94804). As to conditions: Compound concentration 1000.0 nM.
In test [22] the target is Mitogen-activated protein kinase kinase kinase 1 (Homo sapiens) (UniProt Q13233). As to conditions: Compound concentration 1000.0 nM.
The target in test [23] is MAP kinase-activated protein kinase 2 (Homo sapiens) (UniProt P49137). As to conditions: Compound concentration 1000.0 nM.
In test [24] the target is Hepatocyte growth factor receptor (Homo sapiens, UniProt P08581). As to conditions: Compound concentration 1000.0 nM.
The target in test [25] is Mitogen-activated protein kinase kinase kinase 11 (Homo sapiens) (UniProt Q16584). As to conditions: Compound concentration 1000.0 nM.
Test [26] concerns the target Myosin light chain kinase family member 4 (Homo sapiens) (UniProt Q86YV6). As to conditions: Compound concentration 1000.0 nM.
In test [27] the target is Cyclin-dependent kinase 17 (Homo sapiens) (UniProt Q00537). As to conditions: Compound concentration 1000.0 nM.
For test [28], the target named is Phosphorylase b kinase regulatory subunit alpha, liver isoform (Homo sapiens) (UniProt P46019). As to conditions: Compound concentration 1000.0 nM.
The target in test [29] is RAF proto-oncogene serine/threonine-protein kinase (Homo sapiens) (UniProt P04049). As to conditions: Compound concentration 1000.0 nM.
Test [30] concerns the target Ribosomal protein S6 kinase alpha-1 (Homo sapiens) (UniProt Q15418). As to conditions: Compound concentration 1000.0 nM.
The target in test [31] is Serine/threonine-protein kinase TNNI3K (Homo sapiens) (UniProt Q59H18). As to conditions: Compound concentration 1000.0 nM.
Test [32] concerns the target Testis-specific serine/threonine-protein kinase 3 (Homo sapiens) (UniProt Q96PN8). As to conditions: Compound concentration 1000.0 nM.
The target of test [33] is Serine/threonine-protein kinase WNK2 (Homo sapiens) (UniProt Q9Y3S1). As to conditions: Compound concentration 1000.0 nM.
The target of test [34] is Mitogen-activated protein kinase kinase kinase 19 (Homo sapiens) (UniProt Q56UN5). As to conditions: Compound concentration 1000.0 nM.
For a further test, the system named is Hs746T. Kind of test: Cell proliferation with Hs746T cells. The format is functional. As to conditions: Homo sapiens.
For test [35], the target named is Tyrosine-protein kinase ABL2 (Homo sapiens) (UniProt P42684). Kind of test: Arg (h) Millipore kinase activity assay. As to conditions: Compound concentration 1.0 uM.
Test [36] addresses Calcium/calmodulin-dependent protein kinase type II subunit delta (Homo sapiens) (UniProt Q13557). Kind of test: CaMKIIdelta (h) Millipore kinase activity assay. As to conditions: Compound concentration 1.0 uM.
Test [37] has as its target MAP kinase-activated protein kinase 3 (Homo sapiens) (UniProt Q16644). The test can be described thus: MAPKAP-K3 (h) Millipore kinase activity assay. As to conditions: Compound concentration 1.0 uM.
Test [38] concerns the target Dual specificity mitogen-activated protein kinase kinase 6 (Homo sapiens) (UniProt P52564). The test can be described thus: MKK6 (h) Millipore kinase activity assay. As to conditions: Compound concentration 1.0 uM.
Test [39] has as its target PAS domain-containing serine/threonine-protein kinase (Homo sapiens) (UniProt Q96RG2). The test can be described thus: PASK (h) Millipore kinase activity assay. As to conditions: Compound concentration 1.0 uM.
Test [40] deals with Serine/threonine-protein kinase pim-1 (Homo sapiens) (UniProt P11309). Kind of test: Pim-1 (h) Millipore kinase activity assay. As to conditions: Compound concentration 1.0 uM.
The target of test [41] is Protein kinase C beta type (Homo sapiens) (UniProt P05771). The test can be described thus: PKCbetaI (h) Millipore kinase activity assay. As to conditions: Compound concentration 1.0 uM.
Test [42] deals with Tyrosine-protein kinase FRK (Homo sapiens) (UniProt P42685). Kind of test: PTK5 (h) Millipore kinase activity assay. As to conditions: Compound concentration 1.0 uM.
Test [43] concerns the target Ribosomal protein S6 kinase alpha-6 (Homo sapiens) (UniProt Q9UK32). The test can be described thus: Rsk4 (h) Millipore kinase activity assay. As to conditions: Compound concentration 1.0 uM.
Test [44] has as its target Serine/threonine-protein kinase TAO3 (Homo sapiens) (UniProt Q9H2K8). Kind of test: TAO3 (h) Millipore kinase activity assay. As to conditions: Compound concentration 1.0 uM.
The target of test [45] is Glucocorticoid receptor (Homo sapiens) (UniProt P04150). The test can be described thus: Glucocorticoid Eurofins-Panlabs radioligand binding assay. As to conditions: Compound concentration 10.0 uM.
Test [46] deals with Kappa-type opioid receptor (Homo sapiens) (UniProt P41145). As to conditions: Compound concentration 10.0 uM.

Activity calls are given as the source filed them. The calls are words filed in the database; no cut-off is given here.

Sequence of MAP kinase-activated protein kinase 3 (Homo sapiens) (Q16644 whole entry, looked up): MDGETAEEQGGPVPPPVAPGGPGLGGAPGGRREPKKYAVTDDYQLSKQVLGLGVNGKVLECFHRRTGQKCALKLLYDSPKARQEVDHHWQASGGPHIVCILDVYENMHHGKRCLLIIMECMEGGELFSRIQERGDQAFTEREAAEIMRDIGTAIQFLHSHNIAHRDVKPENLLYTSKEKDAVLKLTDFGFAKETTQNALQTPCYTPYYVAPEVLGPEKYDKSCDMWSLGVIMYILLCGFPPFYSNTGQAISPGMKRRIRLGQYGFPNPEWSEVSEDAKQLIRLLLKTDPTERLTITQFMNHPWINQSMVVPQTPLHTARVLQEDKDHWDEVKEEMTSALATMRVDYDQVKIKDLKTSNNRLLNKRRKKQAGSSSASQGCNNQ
Sequence of Cyclin-G-associated kinase (Homo sapiens) (O14976 whole entry): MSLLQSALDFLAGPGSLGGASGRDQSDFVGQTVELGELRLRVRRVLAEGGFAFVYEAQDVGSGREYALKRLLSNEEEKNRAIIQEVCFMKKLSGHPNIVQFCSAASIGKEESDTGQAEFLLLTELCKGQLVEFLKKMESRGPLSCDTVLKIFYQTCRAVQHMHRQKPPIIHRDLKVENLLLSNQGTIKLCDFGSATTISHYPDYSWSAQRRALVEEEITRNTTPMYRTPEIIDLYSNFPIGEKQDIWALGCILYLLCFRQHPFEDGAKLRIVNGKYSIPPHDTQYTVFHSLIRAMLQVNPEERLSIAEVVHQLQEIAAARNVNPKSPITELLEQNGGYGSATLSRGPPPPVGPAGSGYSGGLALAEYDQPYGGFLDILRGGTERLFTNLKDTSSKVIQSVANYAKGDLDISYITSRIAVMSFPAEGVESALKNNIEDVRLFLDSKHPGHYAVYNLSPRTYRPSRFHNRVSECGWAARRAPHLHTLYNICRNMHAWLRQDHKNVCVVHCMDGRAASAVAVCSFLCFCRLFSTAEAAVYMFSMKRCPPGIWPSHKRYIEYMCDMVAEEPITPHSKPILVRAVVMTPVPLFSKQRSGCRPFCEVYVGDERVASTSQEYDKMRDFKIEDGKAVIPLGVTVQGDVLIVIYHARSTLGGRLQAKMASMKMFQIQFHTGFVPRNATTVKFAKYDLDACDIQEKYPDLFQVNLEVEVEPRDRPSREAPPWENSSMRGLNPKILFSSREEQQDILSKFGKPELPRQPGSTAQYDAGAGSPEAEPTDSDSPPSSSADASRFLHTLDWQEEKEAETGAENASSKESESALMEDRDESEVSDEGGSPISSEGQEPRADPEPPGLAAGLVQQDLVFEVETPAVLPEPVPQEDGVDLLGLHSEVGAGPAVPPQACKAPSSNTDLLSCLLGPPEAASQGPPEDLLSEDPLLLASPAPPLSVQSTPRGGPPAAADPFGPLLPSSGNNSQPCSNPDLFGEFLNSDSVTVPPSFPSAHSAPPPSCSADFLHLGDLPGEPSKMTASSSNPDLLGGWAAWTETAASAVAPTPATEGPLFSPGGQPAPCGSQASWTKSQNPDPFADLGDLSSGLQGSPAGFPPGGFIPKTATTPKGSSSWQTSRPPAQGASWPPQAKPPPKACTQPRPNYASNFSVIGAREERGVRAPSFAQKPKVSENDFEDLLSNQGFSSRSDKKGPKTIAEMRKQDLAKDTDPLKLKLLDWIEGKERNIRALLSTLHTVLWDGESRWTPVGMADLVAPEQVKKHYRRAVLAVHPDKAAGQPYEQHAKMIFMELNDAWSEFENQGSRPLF

A word on the Ki: it is the equilibrium dissociation constant of an inhibitor or competing ligand from its target. The pKi is the negative decadic logarithm of the Ki, by convention in mol/L. As to `CC1=C(C#N)[C@@H](c2ccc3[nH]nc(C)c3c2)C(C#N)=C(c2ccc(Cl)cc2)N1` [BAY-827], in [1], the Ki was 2400 nM. Besides, the negative-log Ki (pKi) in [1] is on record as 5.67. Also, the residual activity in test [2] was 43.8%; in [3], 79%; in [4], 100%; in [5] it was 90%; in test [6], 100%; in test [7] it was 100%. Further, the residual activity was 100% in test [8]; 100% in test [9]; 86.8% in [10]; 100% in test [11]; 100% in test [12]; 100% in test [13]. For the same molecule, the residual activity in test [14] is 100%; in test [15], 97.9%; in [16], 100%; in [17] it was 86.1%; in test [18], 100%; in [19] it was 100%. The residual activity was 100% in test [20]; 100% in [21]; 100% in test [22]; 100% in test [23]; 17.2% in [24]; 100% in test [25]. Besides, the residual activity in [26] is 100%; in test [27] it was 87.2%; in [28], 100%; in test [29], 100%; in test [30] it was 100%; in test [31], 94.3%. Further, the residual activity in test [32], in test [33] and in test [34] was 100% in each case.

Broadly, the IC90 is the point of the concentration-response curve where the effect stands at 90%. By inhibition is commonly meant the change of the read-out against control, counted positive when it falls. In the case of `CC1=C(C#N)C(c2ccc3[nH]nc(C)c3c2)C(C#N)=C(C)N1` [BAY-474], the IC90 with Hs746T is 56 nM (active). The inhibition in [35] is 26%; in [36], 3%; in test [37], -5%; in test [38], 5%; in test [39] it was 19%; in test [40], -3%. For the same molecule, the inhibition was -4% in [41]; 2% in test [42]; 52% in test [43]; -8% in [44]; 12% in test [45]; 7% in test [46].
